These results are taken from patent US8663473B2, “Digestion of biosolids in wastewater” (BCR Environmental Corporation, priority 2009, dated 2014).

In test [1] the test system is Waste activated sludge (WAS). Nature of the test: WAS solubilization by chlorine dioxide: soluble COD, NH4 and PO4 release over contact time. To be noted: for soluble COD concentration: contact time 24 h, WAS approx. 7 g/L solids. Here is the method:
Waste activated sludge (WAS) was obtained from a local municipal WWTP which removes cBOD only and uses a pure oxygen system. In order to achieve similar experiment conditions and be consistent with the previous pilot experiment, the solids concentration was adjusted to approximately 7 g/L. Three digesters were set up and treated with chlorine dioxide dosages of 100, 150 and 200 mg/L respectively. The digesters were operated for 24 hours. Samples were taken at time intervals of 10 min, 1 h, 6 h, 12 h and 24 h to represent different contact time.
This confirmed that chlorine dioxide contact time is the key factor for WAS solubilization. The increased soluble COD concentration can be expressed as 10-11% of TCOD which is quite significant. It was also observed that soluble COD concentration at contacting time of 6 hr was approximately 55-66% of the soluble COD at time 24 hrs. […] The increase of soluble COD corresponded to the volatile solids destruction of 4-6% with different chlorine dioxide treatment dosage.
This is considered insignificant. The PO4 increase was much higher and equaled 16 to 28.3 mg P/L after 24 h. Higher phosphorus than nitrogen release can be attributed to the chlorine dioxide treatment which breaks down the cell walls resulting in the release of unbound orthophosphate PO4—P. The nitrogen in the cells is in the form of organic nitrogen (amino acids) and enzymes are required to convert organic nitrogen to ammonia nitrogen. The low pH resulting from the chlorine dioxide treatment may have deactivated the enzyme activity, therefore no/insignificant NH4—N increase was detected.

Test [2] relates to anaerobic digester. In words: Methane production in anaerobic digestion of chlorine dioxide pre-treated sludge. The procedure:
Treatment of non-digested wastewater sludge with chlorine dioxide to solubilized the sludge and make nutrients bio-available and then feeding this material into an established anaerobic digester once the chlorine dioxide residual has been reduced improves gas (methane) production in an anaerobic digester. A generally accepted estimate for methane production at 35° C. is 0.25 kg methane per kg COD consumed. One kmol of methane is equivalent with a mass of 16 kg. Per definition, the COD equivalent of 1 kmol of methane is the mass of the amount of oxygen required for complete oxidation according to the formula: CH4+2O2→CO2+2H2O The mass of the 2 O2 is 2 kmol of oxygen or 64 kg. Thus 64 kg Oxygen Demand is equivalent with 16 kg of methane, or 1 kg of oxygen demand (COD) is equivalent with 16/64=0.25 kg methane.
This increase in soluble COD represents 10-11% of the total COD concentration of the sludge, and represents a 2000% increase in soluble COD. The inventors believe that the higher the s-COD the higher capacity for methane production. The resulting increase in methane production as a result of this enhancement of anaerobic digestion has been measured as a greater than 50% increase utilizing this method, and is expected to be in the range of 100% or more over non-pretreated WAS. […]

Test [3] concerns fecal coliform bacteria. In words: Secondary sludge full-scale test: fecal coliform reduction at varying dose rates of chlorine dioxide. It is filed as cell-based. To be noted: for Fecal coliform: sludge, 10 minutes contact time. The procedure: Treatment of non-digested wastewater sludge with chlorine dioxide allows the material to meet Class B pathogen reduction requirements prior to digestion by reducing the fecal coliform concentrations to levels much lower than the Class B standard (<2,000,000 fecal coliform bacteria) with less than 15 minutes contact time. The resulting biosolids cake has no odor.
In this test, chlorine dioxide was generated on-site, and was injected (at varying concentrations) into a 100 gpm sludge flow passing through a 4 inch diameter pipe. The pipe length was sufficient to allow 10 minutes of contact time between the sludge and the chlorine dioxide prior to dewatering the material.

With `[O][Cl+][O-]` [chlorine dioxide], the NH4 increase in test [1] (all chlorine dioxide treatments) is reported as 3-5.2 mg N/L. Also, the “soluble COD concentration” value in test [1] (chlorine dioxide dosage 100 mg/L) is on record as 913 mg/L; in test [1] (chlorine dioxide dosage 150 mg/L) it was 984 mg/L; in test [1] (chlorine dioxide dosage 200 mg/L) it was 965 mg/L. Also, the volatile solids destruction in test [1] (different chlorine dioxide treatment dosages) is given as 4-6%. The “soluble COD at contact time 6 hr as % of soluble COD at 24 hrs” value in test [1] (dosages 100-200 mg/L) is on record as 55-66%. In addition, the “increase in soluble COD” value in test [1] (dosages 100-200 mg/L, 24 h) was determined as 2000%. Further, in test [1] (dosages 100-200 mg/L, 24 h), the “increased soluble COD expressed as % of total COD (TCOD)” value is 10-11%. Further, the “expected increase in methane production” value in test [2] (over non-pretreated WAS, expected) is not below 100%. Besides, the “increase in methane production” value in test [2] (versus non-pretreated WAS) is “greater than 50%”. Further, in test [3] (non-digested wastewater sludge, less than 15 minutes contact time), the “fecal coliform concentrations relative to Class B standard” value is recorded as < 2,000,000. The Fecal coliform is on record as 3.32 × 10^5 MPN/g in test [3] (dose rate ClO2 32 mg/L); 123,000 MPN/g in test [3] (dose rate ClO2 48 mg/L); 1,800 MPN/g in test [3] (dose rate ClO2 64 mg/L); “BDL” in test [3] (dose rate ClO2 80 mg/L); “BDL” in test [3] (dose rate ClO2 96 mg/L); “BDL” in test [3] (dose rate ClO2 128 mg/L). Further, the Fecal coliform entry in test [3] (dose rate ClO2 160 mg/L) was “BDL*”.
